This assay relates to HIV-1 (HTLV-IIIB strain). Nature of the assay: Occurrence of HIV-1 positive cells in U1 cells with or without TPA stimulation (indirect fluorescent antibody technique). Type of assay: cell-based. The settings on record: for Rate (%) of occurrence of HIV-1 positive cells: U1 cells. The method, then:
As the cell to be tested here for estimation of the occurrence of HIV in this Example, there were used such U1 cells which had been prepared by introducing 2 copies of the gene DNA of HIV-1 (HTLV-IIIB strain) into U937 cells (human monocytic blast-like cells, namely one sort of human T-cells). The U1 cell is an HIV potentially-infected T-cell wherein the HIV-1 gene is present merely as provirus.
The above-mentioned U1 cells were seeded and incubated in Costar 48-well-plates under such different conditions as indicated below. Thus, the U1 cells were seeded in a culture medium and were incubated in the presence of 5,6-O-benzylidene-L-ascorbic acid mono-sodium salt (hereinafter abbreviated as SBA) as incorporated at different concentrations by addition of SBA to the culture medium, or the U1 cells were incubated in the absence of SBA. The incubation of these U1 cells was further effected with such both two types of those U1 cells, namely with such one type of U1 cells which had been stimulated further by addition of TPA at various concentrations thereto, and with such another type of U1 cells which had not been stimulated by TPA.
When the U1 cells as stimulated by the addition of TPA were incubated, replication of the viral particles of HIV took place in considerable numbers of the U1 cells, resulting in the production of the HIV antigen within the cells, so that said cells thus became such HIV-positive cells which could sprout and release the viral particles of HIV therefrom. This replication of the viral particles of HIV can be detected by an indirect fluorescent antibody technique as illustrated below.
The U1 cells were thus incubated under the different conditions as explained in the above, including such a case where both SBA and TPA were not added; such a case where SBA was added, but TPA was not added; such a case where SBA was not added, but TPA was added; and such as case where both SBA and TPA were added, respectively. Then, the replication of the viral particles of HIV within the U1 cells, and the release of the viral particles of HIV from the U1 cells so incubated under the different conditions as above mentioned were detected by means of the indirect fluorescence technique in which there were employed a mouse monoclonal antibody having an anti-HIV-1 activity as a primary antibody and also employed an FITC-rabbit-originated […] as a secondary antibody. The number of the U1 cells which could be detected as the HIV-positive cells was calculated in term of percentage (%) on the basis of the total numbers of the U1 cells as subjected to the test, and it was expressed as the rate (%) of occurrence or appearance of the HIV-1 positive cells.

Structures can show the parent of a compound that is named as a salt.

As for `O=C1O[C@H]([C@@H]2COC(c3ccccc3)O2)C(O)=C1O` (stereo partly drawn) [SBA, 5,6-O-benzylidene-L-ascorbic acid mono-sodium salt], the IC50 (Human immunodeficiency virus 1, IIIB, U1 cells incubated in the presence of TPA, read-out: concentration of SBA required to achieve 50% inhibition of the replication of the HIV viral particles) was about 400 µg/mL. Also, the “Rate (%) of occurrence of HIV-1 positive cells” value turned out to be 26% (SBA 25 µg/ml, TPA (1 ng/ml) was added); 3% (SBA 25 µg/ml, TPA was not added); 21% (SBA 50 µg/ml, TPA (1 ng/ml) was added); 2% (SBA 50 µg/ml, TPA was not added); 16% (SBA 100 µg/ml, TPA (1 ng/ml) was added); 2% (SBA 100 µg/ml, TPA was not added). Moreover, the “Rate (%) of occurrence of HIV-1 positive cells” value stood at 14% (SBA 200 µg/ml, TPA (1 ng/ml) was added); 3% (SBA 200 µg/ml, TPA was not added); 12% (SBA 400 µg/ml, TPA (1 ng/ml) was added); 3% (SBA 400 µg/ml, TPA was not added); 8% (SBA 800 µg/ml, TPA (1 ng/ml) was added); 4% (SBA 800 µg/ml, TPA was not added).

The values are drawn from patent EP0765662A1, “HIV GROWTH INHIBITORY COMPOSITION” (Kochi, Mutsuyuki, priority 1994, dated 1995).
